# Assay: Tissue distribution of 18F imaging agents in rats
# Type: in vivo, Male Sprague Dawley rats
# Details: rat, iv tail vein ~15 μCi, ± SEM; for Blood, imaging agent distribution at 15 min / Brain, imaging agent distribution at 15 min / Femur, imaging agent distribution at 15 min / Heart, imaging agent distribution at 15 min / Kidney, imaging agent distribution at 15 min / Liver, imaging agent distribution at 15 min / Lung, imaging agent distribution at 15 min / Muscle, imaging agent distribution at 15 min / Pancreas, imaging agent distribution at 15 min / Spleen, imaging agent distribution at 15 min: 15 min post injection; for Blood, imaging agent distribution at 60 min / Brain, imaging agent distribution at 60 min / Femur, imaging agent distribution at 60 min / Heart, imaging agent distribution at 60 min / Kidney, imaging agent distribution at 60 min / Liver, imaging agent distribution at 60 min / Lung, imaging agent distribution at 60 min / Muscle, imaging agent distribution at 60 min / Pancreas, imaging agent distribution at 60 min / Spleen, imaging agent distribution at 60 min: 60 min post injection
# Method: Anesthetized (sodium pentobarbital at 50 mg/kg, ip or isoflurane gas inhalation) Male Sprague Dawley rats (250-350 g) received an iv injection of the imaging agent (˜15 μCi) via the tail vein. At 15 or 60 min post injection, the animals were euthanized and the required tissue samples harvested. All samples were then weighed and counted for radioactivity (Wallac Wizard 1480 or Packard Cobra II Autogamma); regional tissue uptake of the imaging agent was thus expressed as a percentage of the total injected dose per gram of tissue (% ID/g).
# The generic structure depicted below highlights specific structural features evaluated during distribution experiments.
Structure (SMILES),"Blood, imaging agent distribution at 15 min","Brain, imaging agent distribution at 15 min","Femur, imaging agent distribution at 15 min","Heart, imaging agent distribution at 15 min","Kidney, imaging agent distribution at 15 min","Liver, imaging agent distribution at 15 min","Lung, imaging agent distribution at 15 min","Muscle, imaging agent distribution at 15 min","Pancreas, imaging agent distribution at 15 min","Spleen, imaging agent distribution at 15 min","Blood, imaging agent distribution at 60 min","Brain, imaging agent distribution at 60 min","Femur, imaging agent distribution at 60 min","Heart, imaging agent distribution at 60 min","Kidney, imaging agent distribution at 60 min","Liver, imaging agent distribution at 60 min","Lung, imaging agent distribution at 60 min","Muscle, imaging agent distribution at 60 min","Pancreas, imaging agent distribution at 60 min","Spleen, imaging agent distribution at 60 min"
CC(C)(C)n1ncc(OCc2ccc(-c3cnc(F)nc3)cc2)c(Cl)c1=O [Example 67L],0.14 ± 0.01 % ID/g,0.30 ± 0.05 % ID/g,0.31 ± 0.01 % ID/g,1.19 ± 0.18 % ID/g,0.65 ± 0.07 % ID/g,1.71 ± 0.36 % ID/g,0.29 ± 0.03 % ID/g,0.27 ± 0.02 % ID/g,0.36 ± 0.06 % ID/g,0.18 ± 0.01 % ID/g,0.10 ± 0.02 % ID/g,0.22 ± 0.03 % ID/g,0.78 ± 0.15 % ID/g,0.62 ± 0.12 % ID/g,0.40 ± 0.08 % ID/g,2.06 ± 0.27 % ID/g,0.21 ± 0.02 % ID/g,0.20 ± 0.06 % ID/g,0.33 ± 0.08 % ID/g,0.11 ± 0.02 % ID/g
CC(C)(C)n1ncc(OCc2cccc(OCCF)c2)c(Cl)c1=O [Example 67F],0.32 ± 0.05 % ID/g,0.50 ± 0.04 % ID/g,0.44 ± 0.04 % ID/g,1.92 ± 0.15 % ID/g,1.04 ± 0.10 % ID/g,0.40 ± 0.04 % ID/g,0.41 ± 0.03 % ID/g,0.60 ± 0.06 % ID/g,0.52 ± 0.04 % ID/g,0.28 ± 0.01 % ID/g,0.48 ± 0.01 % ID/g,0.38 ± 0.01 % ID/g,0.57 ± 0.04 % ID/g,0.87 ± 0.02 % ID/g,0.60 ± 0.03 % ID/g,0.39 ± 0.04 % ID/g,0.44 ± 0.03 % ID/g,0.43 ± 0.07 % ID/g,0.48 ± 0.01 % ID/g,0.31 ± 0.01 % ID/g
CC(C)(C)n1ncc(OCc2ccc(Oc3cccnc3F)cc2)c(Cl)c1=O [Example 67O],0.07 ± 0.03 % ID/g,0.36 ± 0.04 % ID/g,0.27 ± 0.02 % ID/g,2.68 ± 0.35 % ID/g,1.35 ± 0.14 % ID/g,0.99 ± 0.06 % ID/g,0.37 ± 0.15 % ID/g,0.28 ± 0.02 % ID/g,0.55 ± 0.10 % ID/g,0.31 ± 0.09 % ID/g,0.03 ± 0.00 % ID/g,0.36 ± 0.03 % ID/g,0.37 ± 0.05 % ID/g,2.46 ± 0.27 % ID/g,0.83 ± 0.08 % ID/g,0.83 ± 0.17 % ID/g,0.15 ± 0.03 % ID/g,0.39 ± 0.04 % ID/g,0.38 ± 0.02 % ID/g,0.11 ± 0.02 % ID/g
Cc1c(OCc2ccc(COCCF)cc2)cnn(C(C)(C)C)c1=O [Example 67I],0.11 ± 0.02 % ID/g,0.49 ± 0.10 % ID/g,0.28 ± 0.04 % ID/g,2.34 ± 0.57 % ID/g,1.13 ± 0.11 % ID/g,0.33 ± 0.02 % ID/g,0.19 ± 0.03 % ID/g,0.28 ± 0.13 % ID/g,0.43 ± 0.10 % ID/g,0.18 ± 0.01 % ID/g,0.16 ± 0.01 % ID/g,0.36 ± 0.01 % ID/g,0.31 ± 0.02 % ID/g,1.78 ± 0.15 % ID/g,0.48 ± 0.04 % ID/g,0.30 ± 0.01 % ID/g,0.19 ± 0.01 % ID/g,0.35 ± 0.09 % ID/g,0.23 ± 0.02 % ID/g,0.13 ± 0.00 % ID/g
CC(C)(C)n1ncc(OCc2cccc(COCCF)c2)c(Cl)c1=O [Example 67A],0.03 ± 0.01 % ID/g,0.14 ± 0.05 % ID/g,0.06 ± 0.02 % ID/g,0.65 ± 0.36 % ID/g,0.38 ± 0.08 % ID/g,0.08 ± 0.03 % ID/g,0.07 ± 0.01 % ID/g,0.09 ± 0.04 % ID/g,0.15 ± 0.05 % ID/g,0.05 ± 0.01 % ID/g,0.11 ± 0.02 % ID/g,0.14 ± 0.03 % ID/g,0.17 ± 0.04 % ID/g,0.84 ± 0.22 % ID/g,0.23 ± 0.03 % ID/g,0.11 ± 0.02 % ID/g,0.11 ± 0.02 % ID/g,0.18 ± 0.04 % ID/g,0.13 ± 0.03 % ID/g,0.09 ± 0.02 % ID/g
CC(C)(C)n1ncc(OCc2ccc(C#CCCF)cc2)c(Cl)c1=O [Example 67K],0.07 ± 0.03 % ID/g,0.36 ± 0.04 % ID/g,0.27 ± 0.02 % ID/g,2.68 ± 0.35 % ID/g,1.35 ± 0.14 % ID/g,0.99 ± 0.06 % ID/g,0.37 ± 0.15 % ID/g,0.28 ± 0.02 % ID/g,0.55 ± 0.10 % ID/g,0.31 ± 0.09 % ID/g,0.03 ± 0.00 % ID/g,0.36 ± 0.03 % ID/g,0.37 ± 0.05 % ID/g,2.46 ± 0.27 % ID/g,0.83 ± 0.08 % ID/g,0.83 ± 0.17 % ID/g,0.15 ± 0.03 % ID/g,0.39 ± 0.04 % ID/g,0.38 ± 0.02 % ID/g,0.11 ± 0.02 % ID/g

# Reference: patent publication US9713651B2, “Compositions, methods, and systems for the synthesis and use of imaging agents” (Lantheus Medical Imaging, Inc., priority 2012, dated 2017)
